The values that follow come from patent publication US20060189546A1, “Compounds for treating autoimmune and demyelinating diseases” (priority 2005, published 2006).

In data set [1] the test system is Experimental Autoimmune Encephalomyelitis (EAE). The data set is described as follows: Acute EAE, daily dosing for 15 days (Example 5). Conditions: Symadex 6 mg/kg, mitoxantrone 0.35 mg/kg. Type of data set: in vivo, guinea pigs. How it is done: Accordingly, three randomized cohorts of guinea pigs with EAE induced by the method of Example 2, were treated, respectively, with 6 mg/kg of Symadex™ (full salt hydrate) and 0.35 mg/kg of mitoxantrone. Animals were treated daily, by intraperitoneal injection, for 15 days, starting on day 7 post immunization. Controls were treated with vehicle. We reasoned that 15 consecutive, 6 mg/kg doses of Symadex™ would represent a level of drug exposure that would be commensurate with the “20 mg/kg every 72 hours” regimen in Example 4 and consistent with a mid level exposure between the 20 mg/kg and the 40 mg/kg schedule given weekly, in Example 2. The mitoxantrone dose was selected to reflect a typical high dose given to rats or mice by daily dosing in the prior art, but allometrically scaled to the guinea pig.

In a further data set the test system is IL-4. The data set is described as follows: Mediator release, IL-4 (Con A-stimulated PBML, sandwich ELISA). The class given is cell-based. Conditions: Homo sapiens. How it is done: (§1) In this experiment, test compound and/or vehicle were preincubated with human peripheral blood mononuclear leukocyte (PBML, 1×10^6/ml) in RPMI buffer pH 7.4 for 2 hours. Concanavalin A (Con A, 20 μg/ml) was then added to stimulate the cells overnight in 5% CO2 at 37° C. IL-4 and IL-10 cytokine levels in the conditioned medium were then quantified using a sandwich ELISA kit. Compounds were screened at 10, 1, 0.1, 0.01 and 0.001 μM.

The test system of a further data set is B-lymphocyte cells. The data set is described as follows: Cell Proliferation, B-Cell + LPS ([3H]thymidine incorporation). The class given is cell-based, balb/c mice. Conditions: Mus musculus, B-Cell + LPS. How it is done: B-lymphocyte cells isolated from the spleen of balb/c mice weighing 17±1 g were used. Test compound and/or vehicle were incubated with the cells (1.5×10^6/ml) in the presence of 10 μg/ml lipopolysaccharide (LPS) in AIM-V medium pH 7.4 at 37° C. for 24 hours. [^3H]Thymidine (120 nM) was then added for an additional overnight incubation period. Thymidine incorporation was assessed by liquid scintillation counting.
(§2) Test compound-induced suppression of cell proliferation by 50 percent or more (≧50%) relative to vehicle control response indicates significant inhibitory activity.

Another data set relates to T-lymphocyte cells. Put plainly: Cell Proliferation, T-Cell + Con A ([3H]thymidine incorporation). The class given is cell-based, balb/c mice. To be noted: Mus musculus, T-Cell + Con A. How it is done:
T-lymphocyte cells isolated from thymus of balb/c mice weighing 17±1 g were used. Test compound and/or vehicle is incubated with the cells (4×10^6/ml) in the presence of 3 μg/mL Concanavalin A (Con A) in AIM-V medium pH 7.4 at 37° C. for 24 hours. [^3H]Thymidine (120 nM) was then added for an additional overnight incubation period. Thymidine incorporation was assessed by liquid scintillation counting.
as §2

A further data set deals with IL-10. The data set is described as follows: Mediator release, IL-10 (Con A-stimulated PBML, sandwich ELISA). To be noted: Homo sapiens, IL-10 release. The class given is cell-based. How it is done: as §1
Data set [2] relates to Collagen Antibody Induced Arthritis. Conditions: Lange et al., Annals of Rheumatoid Disease 64:599-605, 2005; cited from earlier work.
The mark [3] stands for this setting: 1 nM, read-out: % Growth Inhibition.
Where [4] appears, read: 10 nM, read-out: % Growth Inhibition.
The mark [5] stands for this setting: 0.1 μM, read-out: % Growth Inhibition.
Where [6] appears, read: 1 μM, read-out: % Growth Inhibition.
[7] abbreviates: 10 μM, read-out: % Growth Inhibition.

With `O=C1c2c(O)ccc(O)c2C(=O)c2c(NCCNCCO)ccc(NCCNCCO)c21` [Mitoxantrone, reference compound], the “clinical score (neurological impairment)” value in data set [1] (daily i.p. for 15 days from day 7) is “the initial rise in neurological impairment is arrested”. In addition, the weight gain entry in data set [1] (daily i.p. for 15 days) is given as “impairs weight gain”. Besides, the “reduction of meningeal inflammation (M) pathology score” value in data set [1] (necropsy after 15 daily doses) is given as “statistically significant reduction in meningeal inflammation”. In addition, the “reduction of perivascular cuffing (P), myelitis (E) and demyelination (D) pathology scores” value in data set [1] (necropsy after 15 daily doses) is reported as “statistically significant differences (p value<0.05) from control”. The % inhibition of IL-4 release at 0.001 µM with IL-4 (setting [3]) came out at 11%. In the data set on IL-4 (setting [4]), the % inhibition of IL-4 release at 0.01 µM was 13%. Moreover, the % inhibition of IL-4 release at 0.1 µM in the data set with IL-4 (setting [5]) was determined as 18%. In addition, in the data set with IL-4 (setting [6]), the % inhibition of IL-4 release at 1 µM is -4%. In the data set on IL-4 (setting [7]), the % inhibition of IL-4 release at 10 µM amounted to 108%. Also, the IC50 came to 2960 nM with IL-4 (IL-4 release), 7.31 nM in the data set on B-lymphocyte cells, 32 nM with T-lymphocyte cells and 759 nM in the data set with IL-10. Further, the inhibition at 0.001 µM is 18% in the data set on B-lymphocyte cells (setting [3]), -1% in the data set on T-lymphocyte cells (setting [3]) and 2% in the data set on IL-10 (setting [3]). Further, the inhibition at 0.01 µM with B-lymphocyte cells (setting [4]) was 54%; in the data set on T-lymphocyte cells (setting [4]), 19%; in the data set with IL-10 (setting [4]), 1%. Besides, the inhibition at 0.1 µM with B-lymphocyte cells (setting [5]) came to 93%; in the data set with T-lymphocyte cells (setting [5]) it was 80%; in the data set on IL-10 (setting [5]), 5%. The inhibition at 1 µM stood at 102% in the data set on B-lymphocyte cells (setting [6]), 103% with T-lymphocyte cells (setting [6]) and 60% in the data set on IL-10 (setting [6]). The inhibition at 10 µM came to 102% with B-lymphocyte cells (setting [7]), 103% in the data set with T-lymphocyte cells (setting [7]) and 102% with IL-10 (setting [7]).
Turning to `CN(Cc1cnc2nc(N)nc(N)c2n1)c1ccc(C(=O)N[C@@H](CCC(=O)O)C(=O)O)cc1` [Methotrexate], the “benefit in antibody induced arthritis models” value in data set [2] was “diminishing benefit”.
